The values below come from patent US20180104220A1, “IMIDAZOLE COMPOUND” (MEDSHINE DISCOVERY INC., priority 2015, published 2018).

For the assay, the target named is T1, thromboxane synthetase (Rattus norvegicus, UniProt P49430).
T1 construct: Whole blood was collected from the heart of male SD rat after isoflurane anesthesia; from tissue; host or cells: whole blood of male Sprague-Dawley rats
T1 sequence (P49430 1-533): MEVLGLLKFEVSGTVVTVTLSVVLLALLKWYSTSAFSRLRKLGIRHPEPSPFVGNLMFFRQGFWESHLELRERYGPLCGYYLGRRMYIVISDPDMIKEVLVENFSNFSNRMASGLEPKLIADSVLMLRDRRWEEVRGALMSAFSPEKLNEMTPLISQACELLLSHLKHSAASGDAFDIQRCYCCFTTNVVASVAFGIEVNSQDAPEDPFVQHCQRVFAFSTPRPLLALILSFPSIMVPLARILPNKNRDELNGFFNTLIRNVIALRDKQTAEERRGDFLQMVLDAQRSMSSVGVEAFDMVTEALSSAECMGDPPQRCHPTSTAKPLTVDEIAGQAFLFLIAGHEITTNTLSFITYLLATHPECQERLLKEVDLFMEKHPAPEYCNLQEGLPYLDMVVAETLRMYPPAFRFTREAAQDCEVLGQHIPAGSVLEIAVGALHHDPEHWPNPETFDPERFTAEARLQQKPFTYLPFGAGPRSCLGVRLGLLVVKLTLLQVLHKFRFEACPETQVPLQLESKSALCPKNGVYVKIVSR
In words: Release of TXB2 in the in-vitro coagulation process of rats' whole blood. The settings on record: male SD rat whole blood, 37° C. 30 mins, TXB2 by LC-MS/MS, read-out: IC50 for the release level of TXB2 in the in-vitro coagulation of rats' whole blood (thromboxane synthetase). It is filed as cell-based. An excerpt:
Study for the Release of TXB2 in the in-vitro Coagulation Process of Rats' Whole Blood
In the in-vitro coagulation process, thromboxane A2 (TXA2) pathway was activated, resulting in the formation of large amounts of TXA2, which were rapidly metabolized to its stable form thromboxane B2 (TXB2).
The key enzyme of this pathway was thromboxane synthase. The generation of TXA2 could be inhibited by blocking this enzyme with specific inhibitors (tested compounds), and the level of TXB2 was thus decreased.
The activity of tested compound was measured with the IC50 of inhibiting the formation of TBX2.
Male Sprague-Dawley (SD) rats, purchased from Shanghai SLAC Laboratory Animal Co., Ltd.
0.9% normal saline, […] NaOH solution (vehicle), 100 uM thromboxane synthetase inhibitor solution, isoflurane
1. Tested compound was dissolved by normal saline and prepared to required concentration by gradient dilution. 167 uL of prepared solution was added to centrifuge tube.
2. Whole blood was collected from the heart of male SD rat after isoflurane anesthesia, added to centrifuge tube (0.5 mL), shaken up and incubated under 37° C. water bath for 30 mins until complete coagulation.
3. Centrifuge tube was taken out and centrifuged for 5 mins (6000 g, 4° C.) to get serum.
4. Assay the content of TXB2 by LC-MS/MS-AG (API 4000).
By comparison with the vehicle group, TXB2 contents of each sample were normalized to Control % by the formule:
Control %=(TBX2 level in test tube−TBX2 level in negative tube)/TBX2 level in control tube×100
Note: Test tube: solution of tested compound with series concentration
Negative tube: solution of thromboxane synthetase inhibitor at high concentration (100 uM)
Using GraphPad Prism (concentration as X-axis and Control % as Y-axis) to fit the data and calculate IC50.

Like-named read-outs stand apart in the source and are kept apart here.

The term IC50 denotes the midpoint of a concentration-inhibition curve. In the case of `Oc1cc(-c2ccc(Cn3ccnc3)cc2)on1` [Compound 1, 5-(4-((1H-imidazol-1-yl)methyl)phenyl)isoxazol-3-ol], where the note is “class symbols”, the IC50 was no more than 25 nM. Consider `Oc1cc(-c2ccc(Cn3ccnc3)c(F)c2)on1` [Compound 2, 5-(4-((1H-imidazol-1-yl)methyl)-3-fluorophenyl)isoxazol-3-ol], for which, for the setting “class symbols”, the IC50 was 100 to 250 nM. As to `Oc1cc(-c2ccc(Cn3ccnc3)cc2F)on1` [Compound 3, 5-(4-((1H-imidazol-1-yl)methyl)-2-fluorophenyl)isoxazol-3-ol], where the note is “class symbols”, the IC50 lay in the range of 50 to 100 nM. `Oc1cc(-c2cc(F)c(Cn3ccnc3)cc2F)on1` [Compound 4, 5-(4-((1H-imidazol-1-yl)methyl)-2,5-difluorophenyl)isoxazol-3-ol]: the IC50 (class symbols) fell in the range of 25 to 50 nM. For the compound `Oc1cc(-c2c(F)cc(Cn3ccnc3)cc2F)on1` [Compound 5, 5-(4-((1H-imidazol-1-yl)methyl)-2,6-difluorophenyl)isoxazol-3-ol], the IC50 (class symbols) is 50 to 100 nM.

As for `Oc1cc(-c2cc(F)c(Cn3ccnc3)c(Cl)c2)on1` [Compound 6, 5-(4-((1H-imidazol-1-yl)methyl)-3-chloro-5-fluorophenyl)-isoxazol-3-ol], under “class symbols”, the IC50 lay within 25 to 50 nM. On to `Oc1cc(-c2ccc(Cn3ccnc3)cc2Cl)on1` [Compound 7, 5-(4-((1H-imidazol-1-yl)methyl)-2-chlorophenyl)isoxazol-3-ol], for which the IC50 (class symbols) lay in the range of 50 to 100 nM.

As to `Cc1cc(Cn2ccnc2)ccc1-c1cc(O)no1` [Compound 8, 5-(4-((1H-imidazol-1-yl)methyl)-2-methylphenyl)isoxazol-3-ol], the IC50 (class symbols) was in the range of 50 to 100 nM. Consider `COc1cc(Cn2ccnc2)ccc1-c1cc(O)no1` [Compound 9, 5-(4-((1H-imidazol-1-yl)methyl)-2-methoxyphenyl)isoxazol-3-ol], for which the IC50 (class symbols) was no more than 25 nM. Same read-out and setting: under `COc1cc(-c2cc(O)no2)ccc1Cn1ccnc1` [Compound 10, 5-(4-((1H-imidazol-1-yl)methyl)-3-methoxyphenyl)isoxazol-3-ol] stands 50 to 100 nM; under `Oc1cc(-c2ccc(Cn3ccnc3)c(Cl)c2)on1` [Compound 11, 5-(4-((1H-imidazol-1-yl)methyl)-3-chlorophenyl)isoxazol-3-ol], 25 to 50 nM.

On to `Cc1cc(-c2cc(O)no2)ccc1Cn1ccnc1` [Compound 12, 5-(4-((1H-imidazol-1-yl)methyl)-3-methylphenyl)isoxazol-3-ol], for which the IC50 (class symbols) was 25 to 50 nM. Turning to `Oc1cc(-c2ccc(Cn3ccnc3)c(Br)c2)on1` [Compound 13, 5-(4-((1H-imidazol-1-yl)methyl)-3-bromophenyl)isoxazol-3-ol], the IC50 (class symbols) fell in the range of 25 to 50 nM. `Oc1cc(-c2ccc(Cn3ccnc3)nc2)on1` [Compound 14, 5-(6-((1H-imidazol-1-yl)methyl)pyridin-3-yl)isoxazol-3-ol]: the IC50 (class symbols) was greater than 250 nM. On to `Oc1cc(-c2ccc(Cn3ccnc3)c(C3CC3)c2)on1` [Compound 15, 5-(4-((1H-imidazol-1-yl)methyl)-3-cyclopropylphenyl)isoxazol-3-ol], for which the IC50 (class symbols) was in the range of 50 to 100 nM. For `CCc1cc(-c2cc(O)no2)ccc1Cn1ccnc1` [Compound 16, 5-(4-((1H-imidazol-1-yl)methyl)-3-ethylphenyl)isoxazol-3-ol], the IC50 (class symbols) is no more than 25 nM. Still for that read-out and setting: next, `Oc1cc(-c2cc(F)c(Cn3ccnc3)c(F)c2)on1` [Compound 17, 5-(4-((1H-imidazol-1-yl)methyl)-3,5-difluorophenyl)isoxazol-3-ol]: no more than 25 nM; `Cc1cc(-c2cc(O)no2)cc(C)c1Cn1ccnc1` [Compound 18, 5-(4-((1H-imidazol-1-yl)methyl)-3,5-dimethylphenyl)isoxazol-3-ol]: greater than 250 nM. Same read-out and setting: next, `CC(c1ccc(-c2cc(O)no2)cc1)n1ccnc1` (stereo not drawn) [Compound 20, 5-(4-(1-(1H-imidazol-1-yl)ethyl)phenyl)isoxazol-3-ol]: no more than 25 nM. As to `C[C@H](c1ccc(-c2cc(O)no2)cc1)n1ccnc1` [Compound 21, (R)-5-(4-(1-(1H-imidazol-1-yl)ethyl)phenyl)isoxazol-3-ol], for the setting “class symbols”, the IC50 was no more than 25 nM. Take `C[C@@H](c1ccc(-c2cc(O)no2)cc1)n1ccnc1` [Compound 22, (S)-5-(4-(1-(1H-imidazol-1-yl)ethyl)phenyl)isoxazol-3-ol]: the IC50 (class symbols) is 50 to 100 nM. `CC(C)(c1ccc(-c2cc(O)no2)cc1)n1ccnc1` [Compound 23, 5-(4-(2-(1H-imidazol-1-yl)propan-2-yl)phenyl)isoxazol-3-ol]: the IC50 (class symbols) lay in the range of 100 to 250 nM.

On to `Oc1cc(-c2cccc(Cn3ccnc3)c2)on1` [Compound 24, 5-(3-((1H-imidazol-1-yl)methyl)phenyl)isoxazol-3-ol], for which the IC50 (class symbols) was greater than 250 nM. Take `Oc1cc(Cc2ccc(Cn3ccnc3)cc2)on1` [Compound 25, 5-(4-(2-(1H-imidazol-1-yl)methyl)benzyl)isoxazol-3-ol]: the IC50 (class symbols) was greater than 250 nM.

For the compound `Oc1cc(Cc2cccc(Cn3ccnc3)c2)on1` [Compound 26, 5-(3-((1H-imidazol-1-yl)methyl)benzyl)isoxazol-3-ol], under “class symbols”, the IC50 was greater than 250 nM. For `Oc1nccc(-c2ccc(Cn3ccnc3)cc2)c1F` [Compound 27, 4-(4-((1H-imidazol-1-yl)methyl)phenyl)-3-fluoropyridin-2-ol], the IC50 (class symbols) was greater than 250 nM. Consider `Oc1c(F)ccc(-c2ccc(Cn3ccnc3)cc2)c1F` [Compound 28, 4′-((1H-imidazol-1-yl)methyl)-2,4-difluoro-[1,1′-biphenyl]-3-ol], for which the IC50 (class symbols) was 100 to 250 nM. Take `Oc1cc(-c2ccc(Cn3ccnc3)cc2)sn1` [Compound 29, 5-(4-((1H-imidazol-1-yl)methyl)phenyl)isothiazol-3-ol]: the IC50 (class symbols) is greater than 250 nM.

For the compound `Cc1c(O)noc1-c1ccc(Cn2ccnc2)cc1` [Compound 30, 5-(4-((1H-imidazol-1-yl)methyl)phenyl)-4-methylisoxazol-3-ol], the IC50 (class symbols) is greater than 250 nM. Take `Oc1cc(-c2ccc(Cn3ccnc3)cc2)[nH]n1` [Compound 31, 5-(4-((1H-imidazol-1-yl)methyl)phenyl)-1H-pyrazol-3-ol]: where the note is “class symbols”, the IC50 was greater than 250 nM.

On to `Oc1cc(CCCCn2ccnc2)on1` [Compound 32, 5-(4-(1H-imidazol-1-yl)butyl)isoxazol-3-ol], for which the IC50 (class symbols) was greater than 250 nM. As for `Oc1cc(CCCCCn2ccnc2)on1` [Compound 33, 5-(5-(1H-imidazol-1-yl)pentyl)isoxazol-3-ol], the IC50 (class symbols) was greater than 250 nM. As to `Oc1cc([C@H]2CC[C@H](Cn3ccnc3)CC2)on1` [Compound 34, 5-(trans-4-((1H-imidazol-1-yl)methyl)cyclohexyl)isoxazol-3-ol], where the note is “class symbols”, the IC50 fell in the range of 25 to 50 nM. On the same count and under the same terms, next, `Oc1cc([C@H]2CC[C@@H](Cn3ccnc3)CC2)on1` [Compound 35, 5-(cis-4-((1H-imidazol-1-yl)methyl)cyclohexyl)isoxazol-3-ol]: 50 to 100 nM. On to `Oc1nccc(C2=CCC(Cn3ccnc3)CC2)c1F` (stereo not drawn) [Compound 36, 4-(4-((1H-imidazol-1-yl)methyl)cyclohex-1-en-1-yl)-3-fluoropyridin-2-ol], for which, where the note is “class symbols”, the IC50 is 100 to 250 nM.

As for `O=C(O)/C=C/c1ccc(Cn2ccnc2)cc1` [Ozagrel, reference compound], where the note is “numeric value”, the 50% inhibitory concentration (IC50) turned out to be 120 nM.
